The record followed here is patent US20080200501A1, “NOVEL CANNABINOID RECEPTOR LIGANDS, PHARMACEUTICAL COMPOSITIONS CONTAINING THEM, AND PROCESSES FOR THEIR PREPARATION” (Glenmark Pharmaceuticals S.A., priority 2006, published 2008).

Data set [1] in a line: Pharmacokinetic study, single oral dose in rats. The note with it: Sprague-Dawley, rat; mean; male Sprague-Dawly rats, single oral dose 10 mg/kg in 0.5% methylcellulose suspension, overnight fasted; plasma, HPLC-UV. The data set is classed as in vivo. On the procedure: Male Sprague-Dawly rats were administered by oral gavage a single oral dose of 10 mg/kg b.wt. test compound in 0.5% methylcellulose suspension in overnight fasted (12 hrs before dose) condition. Fasting was continued till 4 hr post dose. Blood samples were collected predose and at 15 and 30 minutes and 1, 2, 3, 4, 6, 8, 12 and 24 hrs post-dose and were kept on an ice bath till further processing. These samples were separated for plasma by centrifuging at 4° C. for 10 minutes at 1000×g and then stored at −70° C. till further analysis. These samples were analyzed for the levels of the test compound by HPLC-UV and the pharmacokinetic parameters were calculated using these concentrations by using WinNonlin software (Pharsight Inc., USA, Version 5.1).

One may read the melting point as the temperature, or range, at which the solid turns liquid. Consider `CCCCCC(C)(C)NC(=O)c1nn(-c2ccc(F)cc2F)c2c1C1CCC2C1` (stereo not drawn), for which the melting point lay within 76 to 78 °C.
One may read the AUC(0-inf) as the area under the concentration-time curve extrapolated to infinity. The low end stands for less exposure, the high end for more exposure. What is called AUC(0-t) is the area under the concentration-time curve up to a stated or last time point. Low values mean low exposure, high ones high exposure. A word on the Cmax: it is the highest concentration seen after dosing. As a reminder, the Tmax is the time at which the peak concentration occurs. As usually defined, the half-life is the time in which the quantity being followed falls by half. Regarding `CC(C)(CO)NC(=O)c1nn(-c2ccc(Cl)cc2)c2c1[C@@H]1CC[C@H]2C1` (single isomer, unassigned) [Compound 98, (1S,7R)- or (1R,7S)-N5-(2-Hydroxy-1,1-dimethylethyl)-3-(4-chlorophenyl)-3,4-diazatricyclo[5.2.1.0^2,6]deca-2(6),4-diene-5-carboxamide], in data set [1], the area under the curve AUC(0-inf) was found to be 12000 ng·h/mL, the AUC(0-t) worked out at 11700 ng·h/mL, the peak level (Cmax) was 1950 ng/mL and the Tmax was determined as 0.5 h. The molecule further showed a half-life in data set [1] of 4.77 h.
